The results in this text go back to PMC8213057, “Targeting ALK2: An Open Science Approach to Developing Therapeutics for the Treatment of Diffuse Intrinsic Pontine Glioma” (Journal of Medicinal Chemistry, 2020).

pIC50: −log10 of the molar value.

For data set [1], the target named is T1, EPHB4 (Homo sapiens, UniProt P54760).
T1 sequence (P54760 16-987): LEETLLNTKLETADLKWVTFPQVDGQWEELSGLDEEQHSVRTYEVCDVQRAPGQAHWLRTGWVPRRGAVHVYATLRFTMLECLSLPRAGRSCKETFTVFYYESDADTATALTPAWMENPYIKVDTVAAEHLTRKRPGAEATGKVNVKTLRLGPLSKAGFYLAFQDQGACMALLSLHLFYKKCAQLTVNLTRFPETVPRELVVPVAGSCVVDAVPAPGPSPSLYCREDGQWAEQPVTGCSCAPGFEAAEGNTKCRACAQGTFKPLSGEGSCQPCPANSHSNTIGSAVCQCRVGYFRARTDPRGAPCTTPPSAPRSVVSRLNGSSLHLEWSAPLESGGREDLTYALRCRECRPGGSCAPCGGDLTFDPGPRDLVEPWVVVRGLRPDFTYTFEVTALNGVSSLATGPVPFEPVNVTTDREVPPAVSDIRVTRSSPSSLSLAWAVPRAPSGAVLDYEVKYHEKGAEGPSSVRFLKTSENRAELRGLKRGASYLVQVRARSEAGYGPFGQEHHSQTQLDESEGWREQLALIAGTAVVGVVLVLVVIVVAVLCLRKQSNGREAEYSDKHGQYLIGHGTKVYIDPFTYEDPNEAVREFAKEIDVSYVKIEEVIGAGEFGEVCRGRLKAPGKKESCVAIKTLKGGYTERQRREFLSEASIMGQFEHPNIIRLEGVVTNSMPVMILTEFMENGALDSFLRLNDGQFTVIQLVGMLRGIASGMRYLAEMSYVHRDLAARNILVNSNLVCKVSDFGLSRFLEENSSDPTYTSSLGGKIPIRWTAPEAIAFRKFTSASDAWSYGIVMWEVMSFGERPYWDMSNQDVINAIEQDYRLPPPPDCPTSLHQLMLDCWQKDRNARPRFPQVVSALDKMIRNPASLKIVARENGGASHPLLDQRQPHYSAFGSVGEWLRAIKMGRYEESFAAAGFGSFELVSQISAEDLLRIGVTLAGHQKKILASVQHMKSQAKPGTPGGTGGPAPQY
Kind of data set: biochemical. Particulars: read-out: % enzyme activity, 1 μM; Run 1, Run 2.

Data set [2] deals with T2, PLK4/SAK (Homo sapiens, UniProt O00444).
T2 sequence (O00444 1-970): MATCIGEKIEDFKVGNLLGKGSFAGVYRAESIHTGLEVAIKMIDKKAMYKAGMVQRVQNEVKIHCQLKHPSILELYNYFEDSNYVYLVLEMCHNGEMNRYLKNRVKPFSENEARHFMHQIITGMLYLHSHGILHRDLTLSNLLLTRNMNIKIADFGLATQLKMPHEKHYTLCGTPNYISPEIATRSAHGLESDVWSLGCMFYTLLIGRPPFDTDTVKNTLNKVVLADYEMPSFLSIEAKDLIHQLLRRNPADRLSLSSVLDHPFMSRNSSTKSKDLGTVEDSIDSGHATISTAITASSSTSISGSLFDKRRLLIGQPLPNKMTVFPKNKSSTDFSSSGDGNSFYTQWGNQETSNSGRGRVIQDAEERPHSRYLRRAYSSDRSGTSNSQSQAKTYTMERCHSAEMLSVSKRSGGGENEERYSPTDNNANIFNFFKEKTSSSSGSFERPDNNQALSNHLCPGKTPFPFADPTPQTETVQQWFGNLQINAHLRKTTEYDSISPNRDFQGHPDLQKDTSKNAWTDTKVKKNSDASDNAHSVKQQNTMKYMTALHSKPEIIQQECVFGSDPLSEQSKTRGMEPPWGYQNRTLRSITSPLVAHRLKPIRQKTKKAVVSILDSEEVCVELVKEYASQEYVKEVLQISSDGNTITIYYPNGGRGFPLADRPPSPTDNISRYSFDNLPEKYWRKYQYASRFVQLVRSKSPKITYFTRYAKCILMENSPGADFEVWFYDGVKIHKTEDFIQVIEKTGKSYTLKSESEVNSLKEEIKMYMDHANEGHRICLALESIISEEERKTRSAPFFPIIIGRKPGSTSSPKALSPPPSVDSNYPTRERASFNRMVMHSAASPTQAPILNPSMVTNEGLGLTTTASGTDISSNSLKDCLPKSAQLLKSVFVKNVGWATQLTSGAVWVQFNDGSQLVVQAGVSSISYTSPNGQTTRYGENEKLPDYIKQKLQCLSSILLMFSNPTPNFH
Kind of data set: biochemical. Particulars: read-out: % enzyme activity, 1 μM; Run 1, Run 2.

Data set [3] addresses T3, CYP2C9 (Homo sapiens, UniProt P11712).
T3 construct: tissue Corning 452117; host or cells: pooled human liver microsomes (UltraPool HLM 150, mixed gender)
Kind of data set: CYP inhibition assay. The class given is in vitro ADME. Particulars: human liver microsomes.

Data set [4] deals with T4, PKCzeta (Homo sapiens, UniProt Q05513).
T4 sequence (Q05513 1-592): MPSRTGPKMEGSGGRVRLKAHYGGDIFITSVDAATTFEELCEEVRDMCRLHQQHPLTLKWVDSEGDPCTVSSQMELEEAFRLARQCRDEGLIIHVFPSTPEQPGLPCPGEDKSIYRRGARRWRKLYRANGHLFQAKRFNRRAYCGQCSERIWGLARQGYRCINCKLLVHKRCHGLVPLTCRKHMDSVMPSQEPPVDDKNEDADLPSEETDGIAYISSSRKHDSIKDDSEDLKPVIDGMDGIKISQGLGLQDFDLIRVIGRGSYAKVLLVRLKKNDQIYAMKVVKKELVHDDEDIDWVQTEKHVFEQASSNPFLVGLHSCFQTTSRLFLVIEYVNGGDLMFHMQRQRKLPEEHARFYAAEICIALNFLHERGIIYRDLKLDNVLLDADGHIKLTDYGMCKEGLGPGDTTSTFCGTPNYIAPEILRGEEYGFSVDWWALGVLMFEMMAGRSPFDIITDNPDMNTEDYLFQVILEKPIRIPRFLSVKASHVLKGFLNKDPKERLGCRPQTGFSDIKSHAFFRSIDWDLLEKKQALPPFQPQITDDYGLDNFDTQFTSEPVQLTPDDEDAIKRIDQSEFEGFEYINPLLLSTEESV
Particulars: 1 μM; Run 1, Run 2.

For data set [5], the target named is PIM3 (Homo sapiens, UniProt Q86V86). The settings on record: 1 μM; Run 1, Run 2.

T3 sequence (P11712 whole entry): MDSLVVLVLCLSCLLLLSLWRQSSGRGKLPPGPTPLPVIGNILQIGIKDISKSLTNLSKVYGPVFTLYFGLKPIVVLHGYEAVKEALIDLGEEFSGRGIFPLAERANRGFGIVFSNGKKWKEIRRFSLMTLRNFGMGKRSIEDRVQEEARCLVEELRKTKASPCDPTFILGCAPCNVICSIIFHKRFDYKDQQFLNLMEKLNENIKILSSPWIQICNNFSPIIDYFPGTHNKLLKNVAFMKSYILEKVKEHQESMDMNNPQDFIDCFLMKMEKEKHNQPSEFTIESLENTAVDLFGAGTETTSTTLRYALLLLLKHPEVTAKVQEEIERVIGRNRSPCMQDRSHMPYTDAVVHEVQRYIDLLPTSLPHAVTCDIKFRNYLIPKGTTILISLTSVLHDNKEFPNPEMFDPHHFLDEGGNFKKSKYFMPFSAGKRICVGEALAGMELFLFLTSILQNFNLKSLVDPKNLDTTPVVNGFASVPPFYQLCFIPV

A word on the pIC50: it is the negative decadic logarithm of the IC50, by convention in mol/L. Regarding `COc1cc(-c2cncc(-c3ccc(N4CCN(C)CC4)cc3)c2C)cc(F)c1C(N)=O` [Compound 26a, 2-Fluoro-6-methoxy-4-(4-methyl-5-(4-(4-methylpiperazin-1-yl)phenyl)pyridin-3-yl)benzamide], the remaining activity at 1 µM in data set [1] was found to be 94.7%; in data set [2], 94.1%. The negative logarithm of the IC50 (pIC50) in data set [3] was less than 4.30. Also, the figures for the “% enzyme activity” value in data set [4] and in data set [5] were 90.40% and 99.10%, respectively.

Consider `COc1cc(-c2cncc(-c3ccc(N4C[C@@H](C)N(C)[C@@H](C)C4)cc3)c2C)cc(F)c1C(N)=O` [Compound 26c, 2-Fluoro-6-methoxy-4-(4-methyl-5-(4-((3R,5S)-3,4,5-trimethylpiperazin-1-yl)phenyl)pyridin-3-yl)benzamide], for which the remaining activity at 1 µM in data set [1] was determined as 91.5%; in data set [2], 98.8%. The pIC50 in data set [3] was less than 4.30. For the same molecule, the “% enzyme activity” value amounted to 91.43% in data set [4] and 106.19% in data set [5].
